Test results as given in ChEMBL document CHEMBL5465560, “Selectivity Literature for EUbOPEN Chemogenomic Library” (2024).
Values belong to the molecule of their own block, whether it stands above or below them.

Tests used:
[1] = target: Serine/threonine-protein kinase pim-3 (Homo sapiens) (UniProt Q86V86); assay: Selectivity interaction (KinomeScan (DiscoverX)) EUB0001049a PIM3; details: at 1 µM
[2] = target: T1, Dual specificity mitogen-activated protein kinase kinase 6 (Homo sapiens) (UniProt P52564); assay: Selectivity interaction (ActivX KiNativ screen (kinase selectivity in THP-1 cell lysates)) EUB0000639a MAP2K6; type: subcellular; details: lysate, at 0.04 µM
T1 sequence (whole entry): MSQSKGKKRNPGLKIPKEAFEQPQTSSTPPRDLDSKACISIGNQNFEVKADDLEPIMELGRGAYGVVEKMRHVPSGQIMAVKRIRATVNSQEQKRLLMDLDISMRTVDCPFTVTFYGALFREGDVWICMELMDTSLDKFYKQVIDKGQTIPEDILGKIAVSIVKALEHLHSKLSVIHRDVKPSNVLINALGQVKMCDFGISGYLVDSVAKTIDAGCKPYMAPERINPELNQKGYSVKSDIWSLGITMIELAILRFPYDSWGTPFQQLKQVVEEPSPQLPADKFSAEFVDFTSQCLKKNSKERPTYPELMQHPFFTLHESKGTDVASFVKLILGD

[3] = target: Mitogen-activated protein kinase kinase kinase 11 (Homo sapiens) (UniProt Q16584); assay: Selectivity interaction (ActivX KiNativ screen (kinase selectivity in THP-1 cell lysates)) EUB0000639a MAP3K11; type: subcellular; details: lysate, at 0.2 µM
[4] = Selectivity interaction (Eurofins CEREP Diversity Profile (receptors and ion channels)) EUB0000279b NPY; details: at 10 µM
[5] = target: Epithelial discoidin domain-containing receptor 1 (Homo sapiens) (UniProt Q08345); assay: Selectivity interaction (KinomeScan (DiscoverX)) EUB0000699a DDR1; details: at 10 µM
[6] = target: T2, Prostaglandin G/H synthase 2 (Homo sapiens) (UniProt P35354); assay: Selectivity interaction (Panel of non-epigenetic targets (kinases, GPCRs, ion channels, and transporters, Eurofins) ) EUB0000271b PTGS2; details: at 1 µM
T2 sequence (whole entry): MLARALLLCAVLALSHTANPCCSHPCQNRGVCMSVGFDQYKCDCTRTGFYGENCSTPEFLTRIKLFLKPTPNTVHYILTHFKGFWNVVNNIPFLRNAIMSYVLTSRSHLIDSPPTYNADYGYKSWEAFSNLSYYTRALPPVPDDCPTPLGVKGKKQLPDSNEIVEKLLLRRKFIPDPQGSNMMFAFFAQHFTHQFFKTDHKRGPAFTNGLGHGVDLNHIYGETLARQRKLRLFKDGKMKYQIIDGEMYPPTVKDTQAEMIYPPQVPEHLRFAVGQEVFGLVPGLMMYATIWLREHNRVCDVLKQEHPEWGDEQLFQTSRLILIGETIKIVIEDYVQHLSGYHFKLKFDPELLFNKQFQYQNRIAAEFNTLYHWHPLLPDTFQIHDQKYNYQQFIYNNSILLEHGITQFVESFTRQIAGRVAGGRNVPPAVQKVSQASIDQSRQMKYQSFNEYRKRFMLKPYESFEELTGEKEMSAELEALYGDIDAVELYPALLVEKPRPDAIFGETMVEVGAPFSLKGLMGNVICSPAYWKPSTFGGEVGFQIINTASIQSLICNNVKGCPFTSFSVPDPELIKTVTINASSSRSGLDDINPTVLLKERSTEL

[7] = target: Serine/threonine-protein kinase Nek4 (Homo sapiens) (UniProt P51957); assay: Selectivity interaction (KinomeScan (DiscoverX)) EUB0000595a NEK4; details: at 10 µM
[8] = test system: Platelet-derived growth factor receptor alpha (Homo sapiens), P16234 [D842V]; assay: (§1) Selectivity interaction (ProQinase) EUB0000171b PDGFRA
[9] = test system: Platelet-derived growth factor receptor alpha (Homo sapiens), P16234 [T674I]; assay: as §1
[10] = test system: Platelet-derived growth factor receptor alpha (Homo sapiens), P16234 [V561D]; assay: as §1
[11] = target: Platelet-derived growth factor receptor alpha (Homo sapiens, UniProt P16234); assay: as §1
[12] = target: Serine/threonine-protein kinase N1 (Homo sapiens, UniProt Q16512); assay: Selectivity interaction (KinomeScan (DiscoverX)) EUB0000092b PKN1; details: at 10 µM
[13] = target: Fibroblast growth factor receptor 1 (Homo sapiens, UniProt P11362); assay: Selectivity interaction (KinomeScan (DiscoverX)) EUB0000045b FGFR1
[14] = target: Myosin-IIIa (Homo sapiens) (UniProt Q8NEV4); assay: Selectivity interaction (KinomeScan (DiscoverX)) EUB0001619a MYO3A; details: at 1 µM
[15] = target: T3, Cyclin-dependent kinase 11A (Homo sapiens) (UniProt Q9UQ88); assay: Selectivity interaction (Kinase panel (KiNativ target engagement assay in Jurkat cells)) EUB0001635a CDK11A; type: cell-based; details: Selectivity number of off-targets 0.0, Selectivity number of targets 233.0, Source Knowledge https://www.sciencedirect.com/science/article/pii/S2451945619300674?via%3Dihub, at 1 µM
T3 sequence (whole entry): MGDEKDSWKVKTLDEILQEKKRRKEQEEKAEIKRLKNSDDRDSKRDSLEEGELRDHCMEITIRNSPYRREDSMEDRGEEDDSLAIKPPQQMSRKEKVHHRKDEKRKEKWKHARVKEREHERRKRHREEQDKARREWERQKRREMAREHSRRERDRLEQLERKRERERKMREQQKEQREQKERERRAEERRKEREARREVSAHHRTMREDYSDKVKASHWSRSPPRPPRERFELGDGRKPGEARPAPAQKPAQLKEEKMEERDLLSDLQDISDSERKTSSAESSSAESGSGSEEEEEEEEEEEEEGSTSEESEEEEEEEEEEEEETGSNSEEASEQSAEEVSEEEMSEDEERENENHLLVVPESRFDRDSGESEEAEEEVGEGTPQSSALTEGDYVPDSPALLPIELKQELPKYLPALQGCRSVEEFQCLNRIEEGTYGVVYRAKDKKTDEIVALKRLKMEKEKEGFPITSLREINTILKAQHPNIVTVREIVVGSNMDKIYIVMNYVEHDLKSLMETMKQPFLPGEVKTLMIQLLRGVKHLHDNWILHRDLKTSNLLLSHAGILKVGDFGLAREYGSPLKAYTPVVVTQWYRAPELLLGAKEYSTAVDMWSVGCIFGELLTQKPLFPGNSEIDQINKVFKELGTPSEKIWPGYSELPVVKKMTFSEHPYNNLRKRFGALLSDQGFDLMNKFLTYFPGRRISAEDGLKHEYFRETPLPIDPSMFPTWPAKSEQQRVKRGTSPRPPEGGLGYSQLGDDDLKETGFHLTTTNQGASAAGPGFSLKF

Sequence of Platelet-derived growth factor receptor alpha (Homo sapiens), P16234 [T674I] (P16234 whole entry T674I): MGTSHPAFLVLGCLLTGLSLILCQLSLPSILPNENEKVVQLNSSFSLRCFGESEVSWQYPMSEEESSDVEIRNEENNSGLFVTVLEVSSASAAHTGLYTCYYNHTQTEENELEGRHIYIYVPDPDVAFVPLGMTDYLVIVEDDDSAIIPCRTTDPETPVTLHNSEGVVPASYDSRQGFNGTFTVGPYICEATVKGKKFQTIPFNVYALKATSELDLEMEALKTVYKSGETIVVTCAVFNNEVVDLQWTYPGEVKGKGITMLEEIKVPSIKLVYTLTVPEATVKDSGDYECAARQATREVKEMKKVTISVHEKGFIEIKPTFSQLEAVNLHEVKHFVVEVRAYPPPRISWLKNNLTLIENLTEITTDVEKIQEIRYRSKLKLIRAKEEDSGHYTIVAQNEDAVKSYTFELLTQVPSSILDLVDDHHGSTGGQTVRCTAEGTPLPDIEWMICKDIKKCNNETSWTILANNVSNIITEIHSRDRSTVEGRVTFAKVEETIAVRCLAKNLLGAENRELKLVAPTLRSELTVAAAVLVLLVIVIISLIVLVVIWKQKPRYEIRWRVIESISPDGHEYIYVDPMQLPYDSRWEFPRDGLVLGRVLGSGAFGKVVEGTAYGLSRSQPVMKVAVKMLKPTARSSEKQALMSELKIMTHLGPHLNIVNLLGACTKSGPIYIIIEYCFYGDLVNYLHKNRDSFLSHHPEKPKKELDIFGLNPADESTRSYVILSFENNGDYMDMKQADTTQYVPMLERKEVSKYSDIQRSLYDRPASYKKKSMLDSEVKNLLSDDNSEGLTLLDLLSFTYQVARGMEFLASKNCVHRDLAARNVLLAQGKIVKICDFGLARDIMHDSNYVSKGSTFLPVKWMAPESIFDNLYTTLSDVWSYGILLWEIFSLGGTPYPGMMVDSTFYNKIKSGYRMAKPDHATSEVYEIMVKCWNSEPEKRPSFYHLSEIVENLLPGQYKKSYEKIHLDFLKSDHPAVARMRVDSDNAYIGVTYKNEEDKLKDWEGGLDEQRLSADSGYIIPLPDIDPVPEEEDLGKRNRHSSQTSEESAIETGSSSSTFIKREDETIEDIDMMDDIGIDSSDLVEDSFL
Sequence of Platelet-derived growth factor receptor alpha (P16234 whole entry): as the sequence (P16234 whole entry T674I) above, with I674T counted along it
Sequence of Platelet-derived growth factor receptor alpha (Homo sapiens), P16234 [V561D] (P16234 whole entry V561D): as the sequence (P16234 whole entry T674I) above, with V561D, I674T counted along it
Sequence of Fibroblast growth factor receptor 1 (P11362 22-822 limits assumed): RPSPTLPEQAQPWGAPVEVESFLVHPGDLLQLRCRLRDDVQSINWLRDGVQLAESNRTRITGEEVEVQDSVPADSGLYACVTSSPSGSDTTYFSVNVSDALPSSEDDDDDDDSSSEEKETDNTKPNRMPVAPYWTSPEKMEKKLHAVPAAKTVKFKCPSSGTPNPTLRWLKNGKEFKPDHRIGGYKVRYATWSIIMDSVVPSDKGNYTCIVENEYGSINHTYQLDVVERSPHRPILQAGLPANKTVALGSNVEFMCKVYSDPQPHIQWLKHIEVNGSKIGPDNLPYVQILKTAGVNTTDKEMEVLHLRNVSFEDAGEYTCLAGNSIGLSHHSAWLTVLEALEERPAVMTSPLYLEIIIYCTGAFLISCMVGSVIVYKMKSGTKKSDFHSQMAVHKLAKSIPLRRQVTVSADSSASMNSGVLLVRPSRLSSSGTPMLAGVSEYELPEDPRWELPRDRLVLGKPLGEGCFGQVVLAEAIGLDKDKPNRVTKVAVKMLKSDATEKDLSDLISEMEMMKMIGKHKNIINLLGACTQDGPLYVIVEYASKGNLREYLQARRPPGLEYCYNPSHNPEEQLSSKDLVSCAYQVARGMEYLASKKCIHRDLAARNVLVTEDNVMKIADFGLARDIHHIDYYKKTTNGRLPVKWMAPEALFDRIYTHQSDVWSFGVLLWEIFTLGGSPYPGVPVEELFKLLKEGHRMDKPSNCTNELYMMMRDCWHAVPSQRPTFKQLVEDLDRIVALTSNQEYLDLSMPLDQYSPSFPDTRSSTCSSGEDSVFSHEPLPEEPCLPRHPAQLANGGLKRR
Sequence of Platelet-derived growth factor receptor alpha (Homo sapiens), P16234 [D842V] (P16234 whole entry D842V): as the sequence (P16234 whole entry T674I) above, with I674T, D842V counted along it
Sequence of Myosin-IIIa (Homo sapiens) (Q8NEV4 whole entry): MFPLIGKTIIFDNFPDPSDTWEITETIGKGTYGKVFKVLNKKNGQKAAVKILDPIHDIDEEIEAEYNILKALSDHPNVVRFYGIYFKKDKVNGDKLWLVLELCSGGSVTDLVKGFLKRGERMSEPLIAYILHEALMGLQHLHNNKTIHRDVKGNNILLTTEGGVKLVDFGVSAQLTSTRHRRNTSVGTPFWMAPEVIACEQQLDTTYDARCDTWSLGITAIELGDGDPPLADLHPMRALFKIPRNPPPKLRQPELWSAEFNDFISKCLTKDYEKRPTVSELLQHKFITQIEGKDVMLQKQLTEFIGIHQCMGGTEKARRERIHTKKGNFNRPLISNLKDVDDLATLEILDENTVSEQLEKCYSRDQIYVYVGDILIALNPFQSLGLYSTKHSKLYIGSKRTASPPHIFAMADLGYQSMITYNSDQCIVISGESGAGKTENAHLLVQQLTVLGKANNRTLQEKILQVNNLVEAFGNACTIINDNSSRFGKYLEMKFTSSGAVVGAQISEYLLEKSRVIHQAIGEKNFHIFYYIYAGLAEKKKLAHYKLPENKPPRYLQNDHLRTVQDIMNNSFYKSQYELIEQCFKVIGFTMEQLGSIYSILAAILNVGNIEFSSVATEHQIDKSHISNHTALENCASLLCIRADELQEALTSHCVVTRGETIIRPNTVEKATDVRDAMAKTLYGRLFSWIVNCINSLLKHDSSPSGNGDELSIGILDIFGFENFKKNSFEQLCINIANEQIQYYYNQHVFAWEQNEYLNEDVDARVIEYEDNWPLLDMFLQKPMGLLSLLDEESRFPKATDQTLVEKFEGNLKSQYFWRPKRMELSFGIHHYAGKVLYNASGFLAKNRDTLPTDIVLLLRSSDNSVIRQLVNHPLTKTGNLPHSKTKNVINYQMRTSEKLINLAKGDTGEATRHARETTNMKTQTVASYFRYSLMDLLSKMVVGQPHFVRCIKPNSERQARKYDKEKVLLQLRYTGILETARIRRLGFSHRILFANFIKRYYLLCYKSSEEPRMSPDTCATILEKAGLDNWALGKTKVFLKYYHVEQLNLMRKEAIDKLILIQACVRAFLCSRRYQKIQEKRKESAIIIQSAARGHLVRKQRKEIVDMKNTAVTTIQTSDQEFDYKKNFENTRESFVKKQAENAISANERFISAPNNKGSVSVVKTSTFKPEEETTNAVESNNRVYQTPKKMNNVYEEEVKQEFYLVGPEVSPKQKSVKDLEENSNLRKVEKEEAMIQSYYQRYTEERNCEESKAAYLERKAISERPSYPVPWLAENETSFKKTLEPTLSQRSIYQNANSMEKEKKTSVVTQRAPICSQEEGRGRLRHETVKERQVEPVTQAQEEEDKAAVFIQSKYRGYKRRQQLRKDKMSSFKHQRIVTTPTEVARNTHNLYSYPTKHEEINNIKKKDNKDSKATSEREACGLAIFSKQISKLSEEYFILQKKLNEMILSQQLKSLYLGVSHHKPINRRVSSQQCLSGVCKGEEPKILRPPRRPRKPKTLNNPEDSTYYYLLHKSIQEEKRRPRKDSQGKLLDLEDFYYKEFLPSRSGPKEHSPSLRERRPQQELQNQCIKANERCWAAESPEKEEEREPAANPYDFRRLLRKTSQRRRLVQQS
Sequence of Serine/threonine-protein kinase N1 (Q16512 2-942 limits assumed): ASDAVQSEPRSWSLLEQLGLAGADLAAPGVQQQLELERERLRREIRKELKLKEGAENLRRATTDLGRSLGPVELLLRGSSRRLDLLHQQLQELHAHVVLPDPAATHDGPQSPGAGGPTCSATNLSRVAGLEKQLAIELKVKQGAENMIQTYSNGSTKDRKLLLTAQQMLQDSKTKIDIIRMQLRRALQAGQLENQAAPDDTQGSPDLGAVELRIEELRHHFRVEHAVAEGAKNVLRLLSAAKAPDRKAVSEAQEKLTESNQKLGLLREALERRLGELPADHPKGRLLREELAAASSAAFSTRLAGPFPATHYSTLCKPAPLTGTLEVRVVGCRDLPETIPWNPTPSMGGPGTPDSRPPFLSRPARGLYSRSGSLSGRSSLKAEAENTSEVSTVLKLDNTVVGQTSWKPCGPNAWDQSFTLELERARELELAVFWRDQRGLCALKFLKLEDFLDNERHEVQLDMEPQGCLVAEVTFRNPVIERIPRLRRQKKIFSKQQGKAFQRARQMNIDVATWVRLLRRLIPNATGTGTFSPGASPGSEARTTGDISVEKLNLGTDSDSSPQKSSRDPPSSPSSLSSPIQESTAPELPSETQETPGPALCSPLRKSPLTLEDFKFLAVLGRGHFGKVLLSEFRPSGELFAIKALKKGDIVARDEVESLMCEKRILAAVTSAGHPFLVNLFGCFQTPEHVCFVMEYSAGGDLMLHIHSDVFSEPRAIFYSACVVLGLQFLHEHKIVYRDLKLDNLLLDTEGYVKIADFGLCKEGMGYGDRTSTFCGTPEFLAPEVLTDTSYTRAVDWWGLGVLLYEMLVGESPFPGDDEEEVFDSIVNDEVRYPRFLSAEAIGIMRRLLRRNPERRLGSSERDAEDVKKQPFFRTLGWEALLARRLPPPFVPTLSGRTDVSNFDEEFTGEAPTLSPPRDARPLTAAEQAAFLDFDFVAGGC

SMILES: COc1cc(Nc2nc(C)cc(-c3cnn4nc(OC)ccc34)n2)cc(C(F)(F)F)c1
% of control [1]: 83%

% of inhibition [2]: 4.7%
% of inhibition [3]: -15.6%
SMILES: CC[C@@H]1[C@H](F)C(=O)N[C@@H]1COc1nccc2cc(C(N)=O)c(OC)cc12 [ZIMLOVISERTIB]

% of control [4]: 123%
SMILES: CC(=O)c1cc(-c2ccccc2OCC2CC2)c2ncccn12

% of control [5]: 1.1%
SMILES: CCN(CC)CCCCNc1ncc2cc(-c3cc(OC)cc(OC)c3)c(NC(=O)NC(C)(C)C)nc2n1

SMILES: Cc1cc(C)cc([C@@H]2c3cc(C)ccc3NC(=O)CN2C(=O)c2ccc(Br)s2)c1
% of inhibition [6]: 8%

SMILES: COCC(=O)NC/C=C/c1ccc2ncnc(Nc3ccc(Oc4ccc(C)nc4)c(C)c3)c2c1 [CP-724714]
% of control [7]: 100%

% of control ([8]; at 1 µM): 68%
% of control ([8]; at 5 µM): 41%
% of control ([9]; at 1 µM): 96%
% of control ([9]; at 5 µM): 84%
% of control ([10]; at 1 µM): 91%
% of control ([10]; at 5 µM): 68%
% of control ([11]; at 1 µM): 97%
% of control ([11]; at 5 µM): 72%
SMILES: C=CC(=O)Nc1cccc(C(=O)Nc2ccc(Nc3cc(-c4[nH]c(SC)nc4C)ccn3)cc2)c1

SMILES: CCC(=O)N1CCN(c2ccc(-n3c(=O)ccc4cnc5ccc(-c6cnc7ccccc7c6)cc5c43)cc2C(F)(F)F)CC1
% of control [12]: 92%

SMILES: C=CC(=O)Nc1cc(-n2c(=O)ccc3cnc4ccc(-c5ccc(NS(C)(=O)=O)cc5)cc4c32)ccc1C
% of control ([13]; at 1 µM): 92%
% of control ([13]; at 10 µM): 98%

SMILES: N#Cc1cccc(-c2c[nH]c3ncnc(N4CCOCC4)c23)c1
% of control [14]: 94%

SMILES: C=CC(=O)Nc1ccc(C(=O)Nc2[nH]nc3c2CN(C(=O)N[C@H](CN(C)C)c2ccccc2)C3(C)C)cc1
% of engagement [15]: -0.8%
